This is an account of results in patent publication US5441983A, “Treatment of infection by enveloped virus with calix(N)arene compounds” (Genelabs Incorporated, priority 1992, dated 1995).

Converted amounts (≈) assume the structure as drawn.

One assay deals with HSV-1. Kind of assay: Plaque reduction assay, HSV-1, Vero cells. Particulars: plaque reduction, Vero cells; for IC50: Human alphaherpesvirus 1, Vero. It is filed as cell-based, HSV-1 (Kos-1). The procedure:
(§1) used in Table 3 were further tested for activity against HSV infection in
(§2) a plaque reduction assay, as detailed in Example 6. Here Vero cells, after
(§3) overnight incubation, were exposed to serial dilutions of KY compound,
(§4) from 0.625-10 μg/ml, and HSV-1 or HSV-2 virus for two hours. After
(§5) washing to remove drug and extracellular virus, the cells were further
(§6) incubated for 2 days, then stained and counted for plaque formation.
(§7) Percent inhibition was determined by dividing plaques produced by total
(§8) number of plaques in infected, untreated controls. From the concentration
(§9) effect curve of plaque inhibition (expressed as percent of control), the
(§10) concentration of compound required to produce 50% plaque reduction,
(§11) IC50, was determined. The IC50 values for infection by HSV-1 and
(§12) HSV-2 infection is given in the right-hand columns in Table 3. With

The subject of another assay is HSV-2. Kind of assay: Plaque reduction assay, HSV-2, Vero cells. Format: cell-based, HSV-2 (333). Particulars: for IC50: Human alphaherpesvirus 2, Vero. The procedure:
as §1, §2, §3, §4, §5, §6, §7, §8, §9, §10, §11, §12

The test system of another assay is HIV-RF-II. Kind of assay: Inhibition of syncytia formation, HIV-RF-II. As to conditions: for EC100: Human immunodeficiency virus 1, 18 h, read-out: HIV-RF-II ED100, complete inhibition of syncytia formation.
A further assay concerns HIV-HXB. The assay can be described thus: Inhibition of syncytia formation, HIV-HXB (HTLV-IIIB). Particulars: for EC100: Human immunodeficiency virus 1, 18 h, read-out: HIV-HXB ED100, complete inhibition of syncytia formation.
The test system of a further assay is HSV-1 or HSV-2. Kind of assay: Inhibition of HSV cytopathic effect (CPE) in Vero cells. As to conditions: 10-20 μg/ml.
The mark [1] stands for this setting: complete inhibition of syncytia formation.

Procedure for HIV-HXB: (§13) Briefly, cells chronically infected with HTLV-IIIB or RF-II HIV strains were incubated in the presence of serial dilutions of the selected KY compound, then further cocultured with indicator cells. The extent of syncytia formation was scored under phase microscopy.
(§14) Representative calix(n)arene compounds from Table 2 were tested for inhibition of cytopathic effects in cells infected with one of two HTLV-III strains, HTLV-IIIB and RF-II strains, as described in Example 12, and in the subsection above.
(§15) Human CD4^+ indicator cells (VB) and chronically infected H9 cells were maintained in RPMI-1640 medium supplemented with 5% fetal calf serum, 100 Units of penicillin per ml and 100 μg of streptomycin per ml at 37° C. in a humidified incubator containing 7% CO2.
(§16) For the fusion assay, serial dilutions between 1:2 and 1:2^8 of a selected KY compound, 1 mg/ml in PBS were made in a 96 well round bottom plate. The diluted KY compound was transferred to a 96 well flat-bottom plate. To each well was added 25 μg chronically infected H9 cells (at 2×10^6, cells/ml), or cells chronically infected with RF-II strain HIV, followed by incubation at 37° C. for 45 minutes. To each well was then added 25 μl VB cells (about 5×10^4 cells), and the cells and virus isolates were cocultured for 18 hours in a humid 5% CO2 atmosphere.
Procedure for HIV-RF-II: as §13, §14, §15, §16
Procedure for HSV-1 or HSV-2: In the method reported in Example 5, Vero cells were infected with HSV-1 or HSV-2 and allowed to grow in culture until cytopathic effects were clearly visible. In the absence of infection, the cells form an even monolayer of fibro-blastlike cells. With HSV infection, a cytopathic effect characterized by round cells in suspension is clearly evident after 24 hours, followed by clumping and lysis of infected cells after 24-72 hours.
In the drug inhibition study reported in Example 5, cells were exposed to HSV-1 or HSV-2 virus and, at the same time, to a selected aryl macrocyclic compound, at a final drug concentration of 10 μg/ml. Twenty-four hours later the cells were examined for cytopathic effect.
Vero cells were maintained in RPMI-1640 medium supplemented with 5% fetal calf serum, 100 Units of penicillin per ml and 100 μg of streptomycin per ml at 37° C. in a humidified incubator containing 7% CO2. The HSV strains HSV-1 (Kos-1) and HSV-2 (333) were used.
1×10^5 Vero cells were plated in each well of a 96 well microtitre plate in 0.2 ml RPMI-1640 medium containing 5% FCS and 0.1% methyl cellulose (15 cps). After overnight incubation, and cell doubling, the medium was aspirated and replaced with 100 .1 of the same medium containing 2% FCS, and 50.1 control or drug solution to a final drug concentration of 10 μg/ml and 50 μl virus, containing about 3 PFU/cell, i.e., 6 x 10^s PFU/well, of HSV-1 or HSV-2.
The cells were cultured for 24 hours at 37° C. at which time cytopathic effects are clearly visible. In the absence of viral infection, the cells form an even monolayer of fibroblast cells. With viral infection, the cells form a suspension of round cells, followed by cell clumping, whose appearance is easily distinguishable from normal fibroblast cells. If no detectable cytopathic effect was produced, the test was repeated with 10 μg/ml. A parallel set of cells without virus inoculation were done as a control for cytotoxicity to Vero cells.

Consider `O=S(=O)(O)c1cc2c(O)c(c1)Cc1cc(S(=O)(=O)O)cc(c1O)Cc1cc(S(=O)(=O)O)cc(c1O)Cc1cc(S(=O)(=O)O)cc(c1O)C2` [Y-49], for which the IC50 in the assay on HSV-1 amounted to 5 µg/mL (≈ 6.71 µM); in the assay on HSV-2, 10 µg/mL (≈ 13.4 µM).

As to `Oc1c2c(S)cc3cc(S)c(c(O)c13)Cc1c(S)cc3cc(S)c(c(O)c3c1O)Cc1c(S)cc3cc(S)c(c(O)c3c1O)Cc1c(S)cc3cc(S)c(c(O)c3c1O)C2` [KY-171], the IC50 in the assay on HSV-1 was found to be 2.5 µg/mL (≈ 2.64 µM); in the assay with HSV-2, 3 µg/mL (≈ 3.17 µM). The EC100 in the assay on HIV-RF-II is 250 µg/mL; with HIV-HXB, 125 µg/mL.

With `COc1c2c(S(=O)(=O)O)cc3cc(S(=O)(=O)O)c(c(OC)c13)CN(C)Cc1c(S(=O)(=O)O)cc3cc(S(=O)(=O)O)c(c(OC)c3c1OC)CN(C)Cc1c(S(=O)(=O)O)cc3cc(S(=O)(=O)O)c(c(OC)c3c1OC)CN(C)Cc1c(S(=O)(=O)O)cc3cc(S(=O)(=O)O)c(c(OC)c3c1OC)CN(C)C2` [KY-395], the “protection from CPE, in words” value in the assay on HSV-1 or HSV-2 is listed as “low activity”.

For `CCNS(=O)(=O)c1cc2cc(S(=O)(=O)NCC)c3c(O)c2c(O)c1Cc1c(S(=O)(=O)NCC)cc2cc(S(=O)(=O)NCC)c(c(O)c2c1O)Cc1c(S(=O)(=O)NCC)cc2cc(S(=O)(=O)NCC)c(c(O)c2c1O)Cc1c(S(=O)(=O)NCC)cc2cc(S(=O)(=O)NCC)c(c(O)c2c1O)C3` [KY-148], the EC100 in the assay with HIV-HXB is 250 µg/mL. Moreover, in the assay on HSV-1 or HSV-2, the “protection from CPE, in words” value is “low activity”.

For `O=S(=O)(O)c1cc2c(O)c(c1)Cc1cc(S(=O)(=O)O)cc(c1O)Cc1cc(S(=O)(=O)O)cc(c1O)Cc1cc(S(=O)(=O)O)cc(c1O)Cc1cc(S(=O)(=O)O)cc(c1O)Cc1cc(S(=O)(=O)O)cc(c1O)C2` [Y-77], the values for the IC50 in the assay on HSV-1 and with HSV-2 were 8 µg/mL (≈ 7.16 µM) and 11 µg/mL (≈ 9.85 µM), respectively.

Consider `O=S(=O)(NO)c1cc2cc(S(=O)(=O)NO)c3c(O)c2c(O)c1Cc1c(S(=O)(=O)NO)cc2cc(S(=O)(=O)NO)c(c(O)c2c1O)Cc1c(S(=O)(=O)NO)cc2cc(S(=O)(=O)NO)c(c(O)c2c1O)Cc1c(S(=O)(=O)NO)cc2cc(S(=O)(=O)NO)c(c(O)c2c1O)C3` [KY-359], for which the values for the IC50 in the assay with HSV-1 and with HSV-2 were 5.75 µg/mL (≈ 3.97 µM) and 4.2 µg/mL (≈ 2.9 µM), respectively. Further, the EC100 worked out at 63 µg/mL in the assay with HIV-RF-II and 32 µg/mL with HIV-HXB.

As for `O=C(O)C1c2c(S(=O)(=O)O)cc3cc(S(=O)(=O)O)c(c(O)c3c2O)C(C(=O)O)c2c(S(=O)(=O)O)cc3cc(S(=O)(=O)O)c(c(O)c3c2O)C(C(=O)O)c2c(S(=O)(=O)O)cc3cc(S(=O)(=O)O)c(c(O)c3c2O)C(C(=O)O)c2c(S(=O)(=O)O)cc3cc(S(=O)(=O)O)c1c(O)c3c2O` (stereo not shown) [Y-66], the IC50 with HSV-1 and in the assay on HSV-2 was above 10 µg/mL in each case.

Regarding `CNS(=O)(=O)c1cc2cc(S(=O)(=O)NC)c3c(O)c2c(O)c1Cc1c(S(=O)(=O)NC)cc2cc(S(=O)(=O)NC)c(c(O)c2c1O)Cc1c(S(=O)(=O)NC)cc2cc(S(=O)(=O)NC)c(c(O)c2c1O)Cc1c(S(=O)(=O)NC)cc2cc(S(=O)(=O)NC)c(c(O)c2c1O)C3` [KY-147], the IC50 with HSV-1 and in the assay with HSV-2 was above 10 µg/mL each time. The EC100 in the assay with HIV-RF-II and in the assay with HIV-HXB was 250 µg/mL each time. The “protection from CPE, in words” value with HSV-1 or HSV-2 is given as “low activity”.

Take `O=S(=O)(O)c1cc2cc(S(=O)(=O)O)c3c(O)c2c(O)c1C(C(O)CO)c1c(S(=O)(=O)O)cc2cc(S(=O)(=O)O)c(c(O)c2c1O)C(C(O)CO)c1c(S(=O)(=O)O)cc2cc(S(=O)(=O)O)c(c(O)c2c1O)C(C(O)CO)c1c(S(=O)(=O)O)cc2cc(S(=O)(=O)O)c(c(O)c2c1O)C3C(O)CO` (stereo not shown) [KY-48]: the EC100 with HIV-HXB came out at 250 µg/mL. In addition, the “protection from CPE, in words” value with HSV-1 or HSV-2 is “low activity”.

With `COc1c2c(S(=O)(=O)O)cc3cc(S(=O)(=O)O)c(c(OC)c13)Cc1c(S(=O)(=O)O)cc3cc(S(=O)(=O)O)c(c(OC)c3c1OC)Cc1c(S(=O)(=O)O)cc3cc(S(=O)(=O)O)c(c(OC)c3c1OC)Cc1c(S(=O)(=O)O)cc3cc(S(=O)(=O)O)c(c(OC)c3c1OC)C2` [KY-280], the “HSV-1 IC50” value with HSV-1 was found to be 1.1 µg/mL. In addition, the “HSV-2 IC50” value in the assay on HSV-2 is 1 µg/mL. Moreover, the “HIV-RF-II ED100” value with HIV-RF-II (setting [1]) was found to be 32. Moreover, the “HIV-HXB ED100” value with HIV-HXB (setting [1]) came to 16.
